Assays:
[1] = target: T1, proteolytic ADAM33 polypeptide (Homo sapiens, UniProt Q9BZ11); assay: FRET assay for inhibition of the proteolytic activity of a proteolytic ADAM33 polypeptide; type: biochemical
T1 construct: The presence of imidazole facilitated the separation of the prodomain from the catalytic domain; made in house; host or cells: Drosophila melanogaster S2 cells (pMT/Bip/V5-His-C, secreted)
T1 sequence (Q9BZ11 204-409): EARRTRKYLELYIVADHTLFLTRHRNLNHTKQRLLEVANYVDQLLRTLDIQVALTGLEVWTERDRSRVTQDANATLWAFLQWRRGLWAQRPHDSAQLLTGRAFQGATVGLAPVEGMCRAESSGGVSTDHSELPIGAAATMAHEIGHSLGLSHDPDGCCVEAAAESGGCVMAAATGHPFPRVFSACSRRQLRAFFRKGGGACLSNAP
Description: A FRET assay may also be used to determine the cleavage of a compound by a proteolytic ADAM33 polypeptide. At room temperature, in a total reaction volume of 100 μL per well in a 96 well plate, add 50 μL of 2× Assay Buffer (40 mM HEPES, pH 7.5, 1.0 M NaCl; 1× Assay Buffer being 20 mM HEPES, pH 7.5, 0.5 M NaCl), followed by 25 μL of 100 μM substrate, e.g., SEQ ID NO: 14 (K(Dabcyl)YEVAHQKLAE(Edans)K-OH), and lastly 25 μL of 40 nM a proteolytic ADAM33 polypeptide in Enzyme Dilution Buffer 40 mM HEPES, pH 7.5. The reaction starts after the enzyme is added and is assayed at room temperature for 15–20 minutes by reading the relative fluorescence unit.
For High throughput screening, the FRET assay is performed similarly to that stated above, but with Assay Buffer that is also composed of 0.2 mg/ml BSA (1× Assay Buffer being 20 mM HEPES, pH 7.5, 0.5 M NaCl, 0.2 mg/ml BSA). In addition, the substrate used has a fluorescent donor and an acceptor at either end of the peptide, e.g., SEQ ID NO: 18 ((Cy5Q)WEVAH*QKLAC(Cy3B)K). Lastly, the reaction is incubated at room temperature for 3 hours and then stopped by adding 10 μL EDTA (11 mM). To measure the proteolytic activity of the proteolytic ADAM33 polypeptide on the substrate, the endpoint (relative fluorescence unit) is read using the appropriate excitation and emission wavelengths (e.g., for Cy5Q and Cy3B, 540 nm and 580 nm, respectively). […]

[2] = target: T1, proteolytic ADAM33 polypeptide; assay: Proteolytic activity assay: cleavage of peptide substrates by a proteolytic ADAM33 polypeptide (HPLC); type: biochemical; settings: fold versus SEQ ID NO: 8
Source text: The proteolytic activity assay consists of a substrate, preferably at a micromolar to submicromolar concentration, and a proteolytic ADAM33 polypeptide, preferably at a submicromolar concentration, in a benign buffered solution at pH 7–9, more preferably around pH 7.5–8.0. This assay may be set-up to monitor proteolytic activity of a proteolytic ADAM33 polypeptide continuously over a time span of minutes to hours in a 96-well or 384-well format. Alternatively, this assay may be set up to allow an elapse of time span of minutes to hours before the proteolytic activity is quenched and analyzed following acidification to under pH 4 or addition of an excess amount of zinc chelators (e.g., EDTA).
For example, an ADAM33 substrate derived from amyloid percursor protein to assay the proteolytic activity of a proteolytic ADAM33 polypeptide. The cleavage site in the above-mentioned substrate is indicated by a hyphen (i.e., the cleavage site is the scissile bond being between the second histidine and the adjacent glutamine). One particular set of assay conditions contains 25 nM of the proteolytic ADAM33 polypeptide and 25 μM substrate. […] The rate of reaction is measured over a defined time period (e.g., for 1 hour at room temperature) and then stopped. Product formation can be quantified at 214 nm by HPLC using a reverse phase column to separate the substrate from the products. […]

Row | inhibition of the proteolytic activity of a proteolytic ADAM33 polypeptide (in words) [1] | cleavage rate relative to the 10-mer truncated form of APP28 (SEQ ID NO: 8) [2] | Compound
1 | identified as an inhibitor |  | CNC(=O)[C@@H](NC(=O)[C@H](CC(C)C)[C@H](O)C(=O)NO)C(C)(C)C [marimastat]
2 |  | seventeen times greater | Ac-Tyr-Glu-Val-Ala-His-Gln-Lys-Leu-Val-Phe-NH2 (Ac-YEVAHQKLVF-NH2) [SEQ ID NO: 13, peptide substrate, code P5P5′, Ac-YEVAH*QKLVF-NH2]

— patent US7067273B2, “Peptide substrates of a proteolytic ADAM33 polypeptide and assays using the same” (Schering Corporation, priority 2002, dated 2006)
